Drawing on article PMC9930818, “2-((1H-Benzo[d]imidazol-2-yl)amino)benzo[d]thiazole-6-sulphonamides: a class of carbonic anhydrase II and VII-selective inhibitors” (Journal of Enzyme Inhibition and Medicinal Chemistry, 2023), this text covers Ki for ten compounds.

What all share (experiment): stopped-flow CO2 hydration assay
Common to all, as to type: biochemical

Test [1] addresses T1, hCA VII (Homo sapiens, UniProt P43166).
T1 construct: gene CA7; recombinant, obtained in-house as reported earlier; cytosolic isoform
The source says: stopped-flow CO2 hydration assay on hCA VII

Test [2] deals with T2, hCA IV (Homo sapiens, UniProt P22748).
T2 construct: gene CA4; recombinant, obtained in-house as reported earlier
The source says: stopped-flow CO2 hydration assay on hCA IV

The target of test [3] is T3, hCA II (Homo sapiens, UniProt P00918).
T3 construct: gene CA2; recombinant, obtained in-house as reported earlier; cytosolic isoform
The source says: stopped-flow CO2 hydration assay on hCA II

The target of test [4] is T4, hCA I (Homo sapiens, UniProt P00915).
T4 construct: gene CA1; recombinant, obtained in-house as reported earlier; cytosolic isoform
The source says:
stopped-flow CO2 hydration assay on hCA I

The target of test [5] is T3, hCA II. The following applies: read-out: KI (nM)^a / hCA I.
Test [6] addresses T1, hCA VII. The note with it: read-out: KI (nM)^a / hCA I.
The target in test [7] is T2, hCA IV. The following applies: read-out: KI (nM)^a / hCA I.

Read-outs that look alike come from different tables or passages of the source. Bounds are passed on as bounds.

T2 sequence (P22748 19-284): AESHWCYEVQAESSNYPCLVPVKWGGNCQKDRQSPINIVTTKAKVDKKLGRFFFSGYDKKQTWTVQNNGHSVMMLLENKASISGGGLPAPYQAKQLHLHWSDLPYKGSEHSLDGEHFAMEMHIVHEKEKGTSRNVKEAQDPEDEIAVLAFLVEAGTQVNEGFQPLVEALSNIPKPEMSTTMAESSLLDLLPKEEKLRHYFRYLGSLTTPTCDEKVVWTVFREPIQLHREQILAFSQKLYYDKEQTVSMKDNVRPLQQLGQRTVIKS
T1 sequence (P43166 whole entry, canonical isoform): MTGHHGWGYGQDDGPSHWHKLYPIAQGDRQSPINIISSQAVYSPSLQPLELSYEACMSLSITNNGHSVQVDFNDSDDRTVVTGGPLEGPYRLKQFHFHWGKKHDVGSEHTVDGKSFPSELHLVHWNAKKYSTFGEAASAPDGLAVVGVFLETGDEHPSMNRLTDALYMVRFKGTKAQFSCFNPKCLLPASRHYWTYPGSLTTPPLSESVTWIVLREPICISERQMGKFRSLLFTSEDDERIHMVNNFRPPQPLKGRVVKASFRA
T4 sequence (P00915 2-261): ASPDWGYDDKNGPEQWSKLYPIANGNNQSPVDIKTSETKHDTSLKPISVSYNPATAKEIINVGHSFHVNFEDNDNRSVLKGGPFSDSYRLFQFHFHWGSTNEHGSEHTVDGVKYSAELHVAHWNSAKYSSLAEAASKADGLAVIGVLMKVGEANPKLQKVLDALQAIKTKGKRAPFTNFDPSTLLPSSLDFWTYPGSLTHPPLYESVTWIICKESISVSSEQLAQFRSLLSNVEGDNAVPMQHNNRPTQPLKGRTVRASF

Take `NS(=O)(=O)c1ccc2nc(NC3=NCCN3)sc2c1` [6a, 2-((4,5-Dihydro-1H-imidazol-2-yl)amino)benzo[d]thiazole-6-sulphonamide]: the Ki in test [1] is 56.3 nM; in test [2] it was > 100000 nM; in test [3], 37.6 nM; in test [4], 422 nM.
On to `CC1CN=C(Nc2nc3ccc(S(N)(=O)=O)cc3s2)N1` (stereo not shown) [6b, 2-((5-Methyl-4,5-dihydro-1H-imidazol-2-yl)amino)benzo[d]thiazole-6-sulphonamide], for which the Ki in test [1] is 37.4 nM; in test [2], > 100000 nM; in test [3], 48.1 nM; in test [4], 568 nM.
On to `NS(=O)(=O)c1ccc2nc(NC3=NC4CCCCC4N3)sc2c1` (stereo not shown) [6c, 2-((3a,4,5,6,7,7a-hexahydro-1H-benzo[d]imidazol-2-yl)amino)benzo[d]thiazole-6-sulphonamide], for which the Ki in test [1] was 82.5 nM; in test [2] it was > 100000 nM; in test [3], 65.6 nM; in test [4] it was 7590 nM.
For `NS(=O)(=O)c1ccc2nc(Nc3nc4ccccc4[nH]3)sc2c1` [7a, 2-((1H-benzo[d]imidazol-2-yl)amino)benzo[d]thiazole-6-sulphonamide], the Ki was 66.9 nM in test [1], > 100000 nM in test [2], 84 nM in test [3] and 4930 nM in test [4].
Take `NS(=O)(=O)c1ccc2nc(Nc3nc4ccc(C(F)(F)F)cc4[nH]3)sc2c1` [7b, 2-((6-(Trifluoromethyl)-1H-benzo[d]imidazol-2-yl)amino)benzo[d]thiazole-6-sulphonamide]: the Ki in test [1] was 452 nM; in test [2] it was > 100000 nM; in test [3], 375 nM; in test [4], 8100 nM.
Regarding `NS(=O)(=O)c1ccc2nc(Nc3nc4ccc(Cl)cc4[nH]3)sc2c1` [7c, 2-((6-Chloro-1H-benzo[d]imidazol-2-yl)amino)benzo[d]thiazole-6-sulphonamide], the Ki in test [1] is 694 nM; in test [2], > 100000 nM; in test [3], 578 nM; in test [4], 9530 nM.
For the compound `O=S(=O)(NC1=NCCN1)c1ccc2nc(NC3=NCCN3)sc2c1` [9a, N-(4,5-Dihydro-1H-imidazol-2-yl)-2-((4,5-dihydro-1H-imidazol-2-yl)amino)benzo[d]thiazole-6-sulphonamide], the Ki in test [5], in test [4], in test [6] and in test [7] was > 100000 nM throughout.
For `CC1CN=C(Nc2nc3ccc(S(=O)(=O)NC4=NCC(C)N4)cc3s2)N1` (stereo not shown) [9b], the Ki in test [5], in test [4], in test [6] and in test [7] was > 100000 nM throughout.
For `O=S(=O)(NC1=NC2CCCCC2N1)c1ccc2nc(NC3=NC4CCCCC4N3)sc2c1` (stereo not shown) [9c, N-(3a,4,5,6,7,7a-hexahydro-1H-benzo[d]imidazol-2-yl)-2-((3a,4,5,6,7,7a-hexahydro-1H-benzo[d]imidazol-2-yl)amino)benzo[d]thiazole-6-sulphonamide], the Ki in test [5], in test [4], in test [6] and in test [7] was > 100000 nM throughout.
Turning to `O=S(=O)(Nc1nc2ccccc2[nH]1)c1ccc2nc(Nc3nc4ccccc4[nH]3)sc2c1` [9d], the Ki in test [5], in test [4], in test [6] and in test [7] was > 100000 nM throughout.
